Experimental data: patent US12171901B2, “Powdered collagen wound care compositions” (priority 2021, dated 2024)
Values joined by “and” are separate entries in the source; they are usually repeats but may differ in a detail not shown here. Equal values may be shown once.

System: skin of female albino New Zealand White rabbits
Assay: Rabbit skin irritation
Description: Within 24 hours to 4 hours before test application, the backs of female albino New Zealand White rabbits were clipped free of hair, exposing 2 test and 2 control areas on each side of the spine with a size of approximately 15 cm×15 cm. The two test sites are located on the left cranial section and the right caudal section of the dorsal region. The two control sites are located on the left caudal and right cranial section of the dorsal region. FIG. 2 depicts the arrangement of test and control sites. The exposed skin is wiped with alcohol and dried. Rabbits of acceptable skin quality were selected and used for testing.
A 25×25 mm gauze patch saturated with 0.5 mL of 0.9% NaCl is used for the control and applied to the clipped control sites. The patches are secured using hypoallergenic, waterproof, surgical tape over the test and control sites. The animal's trunk is securely wrapped so as to maintain the position of the patches. Patches are left applied for a minimum of four hours.
After patch removal, the test and control sites were then scored for erythema and edema at 1, 24, 48 and 72 hours after patch removal. Only the 24, 48, and 72 hour observations were scored and used for calculations. If no response was expected, testing was conducted using three animals per test article. If irritation was anticipated, one animal was tested initially. If the first animal received a score of 2 or less for either erythema or edema, 2 additional rabbits were used to conclude the test.
This total was divided by the total number of observations. The same was done for the control sites. […] These scores for each animal were added and divided by the total number of animals to give the Primary Irritation Index. […] For any response, the Maximum Irritation Response, the time of onset of the response and the time of maximum response was recorded.
To positively validate the test, 10% sodium dodecyl sulfate (SDS), which is a known dermal irritant, in petroleum jelly was applied to a 2.5 cm×2.5 cm gauze patch. As a negative control, 0.5 mL of 0.9% NaCl was applied to a 2.5 cm×2.5 cm gauze patch. A Primary Irritation Index in the moderate to severe range is considered a positive result. The test system and methods utilized were the same as described above.

[1] = per rabbit, 24, 48 and 72 hour observations after patch removal, direct application, sulfate

CCCCCCCCCCCCOS(=O)(=O)[O-].[Na+] [10% SDS, sodium dodecyl sulfate]
Primary Irritation Index (3 animals): 6.4
Total Average (sum over animals) (3 animals): 19.3
ED (edema) score sum [1]: 19 and 21 and 14
ER (erythema) score sum [1]: 21 and 23 and 18
ER + ED = Total [1]: 40 and 44 and 32
